Each block holds one molecule with its values, some of them ahead of it.
Columns and labels:
[1] = test system: APOE*3-Leiden transgenic (E3L) mice; test: Food intake per animal per day in E3L mice; assay type: in vivo, mouse
Description: (§1) We assessed the effect of inhibiting FAAH activity on body weight, body fat, triglyceride levels, cholesterol levels in APOE*3-Leiden transgenic (E3L) mice, an animal model of hyperlipidemia. […] See van Vlijmen et al. (1994), J. Clin Invest., 93:1403-1410. Indeed, upon high fat and cholesterol feeding, these mice develop various stages of atherosclerotic lesions depending on plasma total cholesterol levels and resembling those found in humans. See Groot et al. (1996), Arterioscler. Thromb. Vasc. Biol., 16:926-933; Versch ren et al. (2005), Arterioscler. Thromb. Vasc Biol., 25:161-167; and Lutgens et al. (1999), Circulation; 99(2):276-283). Thus, the E3L mouse is a suitable model for the investigation of the efficacy of anti-atherosclerotic drugs.
(§2) E3L mice were fed a high cholesterol (1% w/w) diet (HC diet) for a period of four weeks. Animals were then matched based on their plasma cholesterol levels, and were divided into five groups, each of which was maintained on an HC diet.

[2] = test system: APOE*3-Leiden transgenic (E3L) mice; test: Plasma adiponectin ELISA in E3L mice; assay type: in vivo, mouse
Description: as §2
We determined plasma adiponectin levels after a four hour fasting period at 0, 14, 28 days, using a mouse-specific adiponectin/Acrp30 ELISA (kit number MRP300 from R&D Systems, Minneapolis, Minn.).

[3] = test system: APOE*3-Leiden transgenic (E3L) mice; test: Total plasma cholesterol in E3L mice; assay type: in vivo, mouse
Description: as §1, §2
(§3) Blood samples were collected at days 0, 14, and 28 of the treatment period. At the end of the treatment period, animals were sacrificed, and various tissues and organs were analyzed. Unless otherwise indicated, values are mean±standard deviation (SD).

[4] = test system: APOE*3-Leiden transgenic (E3L) mice; test: Lipid content of liver (TLC) in E3L mice; assay type: in vivo, mouse
Description: as §2
A reduction of Red Oil O staining in liver generally indicates reduced liver lipid content. We therefore quantified levels of lipids in livers from each animal, as described in Havekes et al. (1987), Biochem. J., 247:739-746; Delsing et al. (2005), J. Cardiovasc. Pharmacol., 45:53-60; and Post et al. (2004), ATVB, 24:768-774. Liver tissue homogenates were prepared. Lipids were extracted, dried under nitrogen, dissolved in chloroform, and spotted onto a channeled 20×20 cm silica gel thin layer chromatography (TLC) plate. Lipids were then separated, TLC plates were warmed up to visualize bands, and bands were quantified using an internal standard as reference.

[5] = test system: APOE*3-Leiden transgenic (E3L) mice; test: Body weight in E3L mice on high cholesterol diet; assay type: in vivo, mouse
Description: as §1, §2

[6] = test system: APOE*3-Leiden transgenic (E3L) mice; test: Plasma alanine aminotransferase (ALAT) activity in E3L mice; assay type: in vivo, mouse; details: day 28
Method: as §2
Levels of plasma alanine aminotransferase (ALAT) were determined on day 28 (table 7). Plasma ALAT is a measure of hepatic stress and increases in plasma ALAT levels are often associated with liver damage. […] Thus, a reduction in plasma ALAT levels is associated with improved liver function.

[7] = test system: APOE*3-Leiden transgenic (E3L) mice; test: Total plasma triglyceride levels in E3L mice; assay type: in vivo, mouse
Description: as §1, §2, §3

[8] = test system: APOE*3-Leiden transgenic (E3L) mice; test: Plasma ketone body (D-3-hydroxybutyrate) levels in E3L mice; assay type: in vivo, mouse
Description: as §2
We quantified plasma D-3-hydroxybutyrate (b-HBA; ketone bodies) levels were quantified in plasma samples obtained after a 4-hour fasting period at time points t=0, t=2, and t=4 weeks using kits #2940 (b-HBA reagent set) and #2947 (b-HBA control set)) according to the guidelines and protocol specified by the manufacturer (Instruchemie, Delfzijl, The Netherlands).

[9] = test system: APOE*3-Leiden transgenic (E3L) mice; test: Organ and tissue weights in E3L mice on high cholesterol diet
Description: as §1, §2, §3

[10] = test system: APOE*3-Leiden transgenic (E3L) mice; test: Plasma lipoprotein profiles (size fractionation of pooled plasma) in E3L mice; assay type: in vivo, mouse; details: day 28, FIG. 1
Method: as §2
Lipoprotein profiles were determined in pooled plasma from day 28, as described in Verschuren et al. (2005), Arterioscler. Thromb. Vasc Biol., 25:161-167. An equal amount of plasma per animal was used to prepare a plasma pool for each group. Plasma lipoproteins in each plasma pool were separated by size fractionation. Typically, VLDL, IDL/LDL and HDL lipoproteins are eluted in fractions 4-8, fractions 11-16 and fractions 17-20, respectively.

[11] = test system: APOE*3-Leiden transgenic (E3L) mice; test: Plasma leptin ELISA in E3L mice; assay type: in vivo, mouse
Description: as §2
Accordingly, we quantified plasma leptin levels after a four hour fasting period at treatment time points 0, 14, and 28 days using a mouse-specific leptin ELISA or (kit number MOB00 from R&D Systems, Minneapolis, Minn.) according to the guidelines and protocol specified by the manufacturer.

[12] = test system: APOE*3-Leiden transgenic (E3L) mice; test: Oil Red O staining of liver sections (steatosis) in E3L mice; assay type: in vivo, mouse
Description: as §2
In order to examine cellular stress in the liver due to lipid storage (steatosis), we stained frozen liver tissue sections with Oil Red O a fat-soluble diazo dye used to stain for lipids. Digital photomicrographs of liver cross sections were taken for each individual animal (magnification: 20 fold). […]

[13] = E3L mice, HC diet, end of four-week treatment, mean ± SD

- Organ and Tissue Weights: Brain ([9]; mouse, in vivo): 0.44 ± 0.02 g
- Organ and Tissue Weights: Heart ([9]; mouse, in vivo): 0.14 ± 0.01 g
- Organ and Tissue Weights: Liver ([9]; mouse, in vivo): 0.91 ± 0.16 g
- Organ and Tissue Weights: Lung ([9]; mouse, in vivo): 0.19 ± 0.02 g
Structure (SMILES): CCCCCCCC/C=C\CCCCCCCC(=O)NCCO [OEA, oleoylethanolamide]
- Food Intake Per Animal Per Day ([1]; interval 0-0.5 weeks): 2.5 ± 0.05 g
- Food Intake Per Animal Per Day ([1]; interval 0.5-1.0 weeks): 2.3 ± 0.04 g
- Food Intake Per Animal Per Day ([1]; interval 1.0-1.5 weeks): 2.4 ± 0.1 g
- Food Intake Per Animal Per Day ([1]; interval 1.5-2.0 weeks): 2.4 ± 0.1 g
- Food Intake Per Animal Per Day ([1]; interval 2.0-2.5 weeks): 2.3 ± 0.1 g
- Food Intake Per Animal Per Day ([1]; interval 2.5-3.0 weeks): 2.3 ± 0.05 g
- Food Intake Per Animal Per Day ([1]; interval 3.0-3.5 weeks): 2.3 ± 0.1 g
- Food Intake Per Animal Per Day ([1]; interval 3.5-4.0 weeks): *2.0 ± 0.1 g
- Food Intake Per Animal Per Day ([1]; interval run-in): 2.5 ± 0.5 g
- food intake, in words ([1]; last time point): slight, but significant, decrease
- Plasma Adiponectin Levels ([2]; day 0, four hour fasting): 12.9 ± 2.8 µg/mL
- Plasma Adiponectin Levels ([2]; day 14, four hour fasting): 11.3 ± 3.5 µg/mL
- Plasma Adiponectin Levels ([2]; day 28, four hour fasting): 11.4 ± 2 µg/mL
- Total Plasma Cholesterol ([3]; day 0): 13.9 ± 3.4 mM
- Total Plasma Cholesterol ([3]; day 14): ^#16.0 ± 2.9 mM
- Total Plasma Cholesterol ([3]; day 28): ^#15.8 ± 2.7 mM
- total plasma cholesterol levels, in words ([3]; days 14 and 28, relative to respective control group): slightly and significantly increased
- liver cholesterol esters (CE), in words ([4]; compared to the oral vehicle group): significantly increased
- Lipid Content of Liver: Cholesterol Esters ([4]; end of four-week treatment): ^#61 ± 7 ^
- Lipid Content of Liver: Free Cholesterol ([4]; end of four-week treatment): 21 ± 2
- Lipid Content of Liver: Triglycerides ([4]; end of four-week treatment): 94 ± 11
- body weights, in words ([5]; last time point (4 weeks), within group): significantly reduced
- Body Weight ([5]; week 0): 22.3 ± 1.3 g
- Body Weight ([5]; week 0.5): 22.5 ± 1.0 g
- Body Weight ([5]; week 1): 22.6 ± 1.0 g
- Body Weight ([5]; week 1.5): 21.8 ± 1.1 g
- Body Weight ([5]; week 2): 21.9 ± 1.2 g
- Body Weight ([5]; week 2.5): 21.9 ± 1.3 g
- Body Weight ([5]; week 3): *21.6 ± 1.1 g
- Body Weight ([5]; week 3.5): *21.3 ± 1.2 g
- Body Weight ([5]; week 4): *21.4 ± 1.2 g
- Plasma Alanine Amino Transferase Activity [6]: *68.6 ± 17.6 U/L
- Total Plasma Triglyceride Levels ([7]; day 0): 1.5 ± 0.4 mM
- Total Plasma Triglyceride Levels ([7]; day 14): 1.7 ± 0.6 mM
- Total Plasma Triglyceride Levels ([7]; day 28): *1.3 ± 0.3 mM
- total plasma triglyceride levels, in words ([7]; relative to respective control group): slightly decreased
- plasma HB levels, in words ([8]; at 28 days, compared to the oral vehicle control group): significantly lower
- Plasma Ketone Body (HB) levels ([8]; day 0, 4-hour fasting): 0.79 ± 0.19 mM
- Plasma Ketone Body (HB) levels ([8]; day 14, 4-hour fasting): 0.23 ± 0.09 mM
- Plasma Ketone Body (HB) levels ([8]; day 28, 4-hour fasting): ^#0.38 ± 0.10^ mM
- Organ and Tissue Weights: Fat (gonadal fat) [9, 13]: *0.24 ± 0.06 g
- gonadal fat weight, in words ([9]; relative to the oral vehicle group): significantly lower
- IDL/LDL particle size, in words [10]: slight shift toward larger IDL/LDL particles
- VLDL fraction of plasma lipoprotein profile, in words [10]: increase
- plasma leptin levels, in words ([11]; at 14 days, relative to the oral vehicle control group): lower
- Plasma Leptin Levels ([11]; day 0, four hour fasting): 4.7 ± 2.3 ng/mL
- Plasma Leptin Levels ([11]; day 14, four hour fasting): ^#7.3 ± 3.1^ ng/ml
- Plasma Leptin Levels ([11]; day 28, four hour fasting): 6.1 ± 4.6 ng/mL
- steatotic (Oil Red O) staining in liver, in words ([12]; compared to the control vehicle group): small, but significant reduction
- Oil Red O Staining in Liver, Mild-Severe (above 115 relative units) ([12]; end of four-week treatment): *36 ± 5 % of cross-sectional area
- Oil Red O Staining in Liver, Severe (above 175 relative units) ([12]; end of four-week treatment): *8 ± 2 % of cross-sectional area

- Organ and Tissue Weights: Heart [9, 13]: 0.14 ± 0.02 g
- Organ and Tissue Weights: Liver [9, 13]: ^#1.77 ± 0.28^ g
- Organ and Tissue Weights: Lung [9, 13]: 0.21 ± 0.05 g
- liver weight, in words ([9]; relative to its control group): significant increase
Structure (SMILES): CC(C)OC(=O)C(C)(C)Oc1ccc(C(=O)c2ccc(Cl)cc2)cc1 [Fenofibrate, fenofibrate]
- Total Plasma Cholesterol ([3]; day 0): 13.6 ± 4.2 mM
- Total Plasma Cholesterol ([3]; day 14): *6.5 ± 1.0 mM
- Total Plasma Cholesterol ([3]; day 28): *6.2 ± 1.3 mM
- Lipid Content of Liver: Cholesterol Esters ([4]; end of four-week treatment): 44 ± 6
- Lipid Content of Liver: Free Cholesterol ([4]; end of four-week treatment): 21 ± 2
- Plasma Alanine Amino Transferase Activity [6]: 112.5 ± 10.4 U/L
- Total Plasma Triglyceride Levels ([7]; day 0): 1.6 ± 0.4 mM
- Total Plasma Triglyceride Levels ([7]; day 14): ^#*0.7 ± 0.2 mM
- Total Plasma Triglyceride Levels ([7]; day 28): ^#*0.7 ± 0.2 mM
- Organ and Tissue Weights: Fat (gonadal fat) [9, 13]: 0.48 ± 0.14 g
